Experimental data published in publication PMC9481570, “A small molecule antagonist of SMN disrupts the interaction between SMN and RNAP II” (Nature Communications, 2022).

Experiments:
SMN_Y127F = biological target: T1, SMN_Y127F (Homo sapiens, UniProt Q16637, Y127F); assay: ITC binding to SMN Tudor mutant Y127F; details: Fig. 3d
T1 construct: cloned into pET28-MHL vector: SMN (aa 82–147); His (N, cleaved yes); made in house; host or cells: E. coli BL21 (DE3) Codon plus RIL
From the text: (§1) The coding DNA fragments of following Tudor domains were cloned into pET28-MHL vector: SMN (aa 82–147), UHRF1 (aa 126–285), SMNDC1 (aa 53–130), TDRD3 (aa 554–611), SND1 (aa 650–910), TDRD2 (aa 327–420), FXR1 (aa 2–132), PHF1 (aa 28–87), SGF29 (aa 115–293), JMJD2A (aa 897–1101), 53BP1 (aa 1483–1606), SETDB1 (aa 190–410), LBR (aa 1–67), ZGPAT (aa 120–271). The coding regions of chromodomain of CBX7 (aa 8–62), PWWP domain of DNMT3A (aa 275–417), WD40 repeats of WDR5 (aa 24–334) and CW domain of ZCWPW2 (aa 21–78) were also subcloned into pET28-MHL vector to generate N-terminally His-tagged fusion protein. The MBT repeats of L3MBTL1 (aa 200–522) and L3MBTL2 (aa 170–625) were subcloned into pET28GST-LIC vector to generate N-terminally GST-His-tagged fusion protein. All the plasmids were generated by ligase independent cloning (Vazyme Biotech, C112 or ABclonal Technology, RK21020). […] The molecular weight of all protein samples was measured by mass spectrometry.
(§2) For the ITC measurement, the concentrated proteins were diluted into 20 mM Tris-HCl, pH 7.5, 150 mM NaCl (ITC buffer); the lyophilized compounds were dissolved in the same buffer, and the pH value was adjusted by adding 2 M NaOH or 2 M HCl. […] Compound concentrations were calculated from the mass and the volume of the solvent. […]

SMN_W102A = biological target: T2, SMN_W102A (Homo sapiens, UniProt Q16637, W102A); assay: ITC binding to SMN Tudor mutant W102A; details: Fig. 3d
T2 construct: SMN (aa 82–147); His (N, cleaved yes); made in house; host or cells: E. coli BL21 (DE3) Codon plus RIL
T2 sequence (Q16637 82-147 W102A): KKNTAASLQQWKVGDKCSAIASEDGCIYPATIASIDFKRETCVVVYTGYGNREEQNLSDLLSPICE
From the text: as §1, §2

ZGPAT = biological target: T3, ZGPAT (Homo sapiens, UniProt Q8N5A5); assay: ITC binding to ZGPAT; details: Fig. 1c
T3 construct: ZGPAT (aa 120–271); His (N, cleaved yes); made in house; host or cells: E. coli BL21 (DE3) Codon plus RIL
T3 sequence (Q8N5A5 120-271): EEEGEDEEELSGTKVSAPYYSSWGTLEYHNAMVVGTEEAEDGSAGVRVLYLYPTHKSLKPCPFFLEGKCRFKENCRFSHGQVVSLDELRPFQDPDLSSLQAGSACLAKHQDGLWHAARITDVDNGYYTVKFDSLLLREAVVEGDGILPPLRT
From the text: as §1, §2

L3MBTL2 (MBT) = biological target: T4, L3MBTL2 (MBT) (Homo sapiens, UniProt Q969R5); assay: ITC binding to MBT repeats of L3MBTL2; details: Fig. 1c
T4 construct: L3MBTL2 (aa 170–625); GST-His (N, cleaved yes); made in house; host or cells: E. coli BL21 (DE3) Codon plus RIL
T4 sequence (Q969R5 170-625): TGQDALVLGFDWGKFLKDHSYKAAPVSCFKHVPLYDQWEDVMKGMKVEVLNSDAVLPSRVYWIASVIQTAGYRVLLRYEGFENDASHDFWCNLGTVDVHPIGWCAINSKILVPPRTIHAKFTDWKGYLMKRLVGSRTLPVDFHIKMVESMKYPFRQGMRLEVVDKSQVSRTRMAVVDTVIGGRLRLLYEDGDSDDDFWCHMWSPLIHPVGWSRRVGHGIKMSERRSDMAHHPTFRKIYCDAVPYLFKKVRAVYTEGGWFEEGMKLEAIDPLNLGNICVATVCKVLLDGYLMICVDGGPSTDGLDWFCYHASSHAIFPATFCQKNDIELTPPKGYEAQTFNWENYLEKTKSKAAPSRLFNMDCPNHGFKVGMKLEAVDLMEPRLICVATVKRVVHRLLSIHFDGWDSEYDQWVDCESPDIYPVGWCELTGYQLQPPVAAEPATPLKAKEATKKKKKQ
From the text: as §1, §2

SND1_F740W = biological target: T5, SND1_F740W (Homo sapiens, UniProt Q7KZF4, F740W); assay: ITC binding to SND1 mutant F740W; details: Supplementary Fig. 11c, iTC-200; read-out: Kd, ITC binding curve, SND1_F740W
T5 construct: SND1 (aa 650–910); His (N, cleaved yes); made in house; host or cells: E. coli BL21 (DE3) Codon plus RIL
T5 sequence (Q7KZF4 650-910 F740W): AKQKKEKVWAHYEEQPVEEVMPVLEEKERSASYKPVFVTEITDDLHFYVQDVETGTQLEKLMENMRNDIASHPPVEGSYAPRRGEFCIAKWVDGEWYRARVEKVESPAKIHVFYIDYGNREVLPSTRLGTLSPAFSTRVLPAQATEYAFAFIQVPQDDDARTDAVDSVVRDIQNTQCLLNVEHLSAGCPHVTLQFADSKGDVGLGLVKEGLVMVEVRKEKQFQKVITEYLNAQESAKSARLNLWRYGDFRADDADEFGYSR
From the text: as §1, §2

SMNDC1 = biological target: T6, SMNDC1 (Homo sapiens, UniProt O75940); assay: ITC binding to SMNDC1; details: Supplementary Fig. 2; read-out: Kd, ITC binding curve, SMNDC1
T6 construct: SMNDC1 (aa 53–130); His (N, cleaved yes); made in house; host or cells: E. coli BL21 (DE3) Codon plus RIL
T6 sequence (O75940 53-130): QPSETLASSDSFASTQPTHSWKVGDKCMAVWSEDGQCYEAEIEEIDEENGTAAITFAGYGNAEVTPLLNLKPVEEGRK
From the text: as §1, §2

T1 sequence (Q16637 82-147 Y127F): as the sequence (Q16637 82-147 W102A) above, with A21W, Y46F counted along it

Cn1c2c(c(=N)c3c1CCC3)CCC2 [Compound 1, 4-methyl-2,3,4,5,6,7-hexahydrodicyclopenta[b,e]pyridin-8(1H)-imine]
Kd (SMN_Y127F): 4 ± 0.2 µM | Kd (SMN_W102A): > 244 µM | Kd (ZGPAT): > 244 µM | Kd (L3MBTL2 (MBT)): > 244 µM | Kd (SND1_F740W): 38 ± 8 µM | Kd (SMNDC1): 2.8 ± 0.2 µM
